In brackets after ≈: the same amount, converted by molar mass.
Assays:
E. coli ATCC 35218 = test: disc diffusion assay; format: cell-based; settings: 0.15 μmol per 6 mm disc
Method: (§1) In the performed disc diffusion assays, indole derivatives (S)-13h, (S)-13i, and (S)-13j caused promising halos of growth inhibition.
(§2) The disc diffusion assays against E. coli TOP10 (Thermo Fisher, Waltham, USA), E. coli ATCC 35218, K. pneumoniae ATCC 700603, and P. aeruginosa ATCC 27853 were performed as follows: the bacteria were grown overnight on a Columbia blood agar plate (Oxoid, Basingstoke, UK), and one colony was suspended in sterile saline to yield a suspension of 0.5 McFarland standard. Using a sterile swab, the suspension was spread evenly onto Mueller–Hinton agar (Oxoid, Basingstoke, UK). 0.15 μmol of each compound (dissolved in 10 μL DMSO) was applied onto circular 6 mm diameter filter paper disks, which were then placed on the agar. After incubating the agar plates for 20 h at 37 °C, the diameter of the zone of growth inhibition was measured for each compound.

E. coli TOP10 = test: disc diffusion assay; format: cell-based; settings: 0.15 μmol per 6 mm disc
Method: as §1, §2

P. aeruginosa ATCC 27853 = test: disc diffusion assay; format: cell-based; settings: 0.15 μmol per 6 mm disc
Method: as §1, §2

E. coli BL21(DE3) = test: MIC, broth microdilution; format: cell-based; settings: Escherichia coli, 20 h, 37 °C, LB
Summary of the method: (§3)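 LB broth microdilution, inoculum 5 × 10^5 cfu mL^–1, 5% DMSO, 2-fold compound series 64–0.016 μg mL^–1 final, incubated 20 h at 37 °C. MIC was the lowest concentration preventing visible growth, from at least three runs on separate days.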

E. coli D22 = test: MIC, broth microdilution; format: cell-based; settings: Escherichia coli, 20 h, 37 °C, LB
Summary of the method: as §3

[1] = test system: K. pneumoniae ATCC 700603; test: disc diffusion assay; format: cell-based, Klebsiella pneumoniae; settings: 0.15 μmol per 6 mm disc
Method: as §1, §2

P. aeruginosa LpxC = biological target: T1, P. aeruginosa LpxC (Pseudomonas aeruginosa, UniProt P47205); test: LC–MS/MS-based P. aeruginosa LpxC enzyme inhibition assay; format: biochemical; settings: from IC50 via Cheng–Prusoff
T1 construct: made in house; host or cells: E. coli BL21(DE3)
Source text: As Pseudomonas aeruginosa is one of the so-called ESKAPE pathogens,[56] being the leading cause of nosocomial infections throughout the world, and carbapenem-resistant P. aeruginosa strains were assigned the highest priority (priority 1: critical) within the “WHO priority pathogens list for R&D of new antibiotics” (WHO 2017),[57] new antibacterial agents combating these bacteria are urgently required. Thus, our newly developed LpxC inhibitors should be tested for inhibitory activity toward P. aeruginosa LpxC, which shares 57% sequence identity with E. coli LpxC.[28] Therefore, a liquid chromatography with tandem mass spectrometry (LC–MS/MS)-based P. aeruginosa LpxC assay was established. […] After incubation and subsequent termination of the enzymatic reaction, the samples were subjected to LC–MS/MS analysis. Following the chromatographic separation of substrate 1 and deacetylated product 2, the eluted compounds were ionized and subjected to fragmentation. Three multiple reaction monitoring (MRM) transitions were detected per compound [precursor ions: m/z (substrate 1) 832; m/z (deacetylated product 2) 790; product ions: m/z (product 1) 385, collision energy = −60 V; m/z (product 2) 159, collision energy = −80 V; m/z (product 3) 79, collision energy = −140 V]. The MRM transitions 832 → 79 of substrate 1 and 790 → 79 of product 2 were used as quantifiers; the other mass transitions were used as qualifiers.
The protocol of the LC–MS/MS-based P. aeruginosa LpxC assay was based on the E. coli LpxC C63A enzyme assay. Compared to the fluorescence-based enzyme assay, the substrate was diluted 1:10 and the inhibitors were diluted 1:4.
The wells in a black, nonbinding, 96-well fluorescence microplate (Greiner Bio One, Frickenhausen) were filled with 93 μL of 2.69 μM UDP-3-O-[(R)-3-hydroxymyristoyl]-N-acetylglucosamine in assay buffer [50 mM KH2PO4/K2HPO4 (pH = 7.5), 80 μM dithiothreitol, 0.02% Brij 35]. In order to assay the inhibitors at final concentrations from 5 nM up to 5 μM, 2 μL of a respective dilution of the compounds in DMSO were added. The addition of 5 μL of a solution of purified P. aeruginosa LpxC (5 μg mL^–1) in assay buffer led to final concentrations of 2.5 μM UDP-3-O-[(R)-3-hydroxymyristoyl]-N-acetylglucosamine, 7.5 nM P. aeruginosa LpxC, 2% DMSO, and from 5 nM up to 5 μM inhibitor. The microplate was incubated for 30 min at 37 °C in a plate shaker. Then, the biochemical reaction was stopped by adding 40 μL of 0.625 M hydrochloric acid. The reaction mixtures were further incubated for 10 min, sealed, and stored at −80 °C until analysis.
LC–MS/MS-Analysis. The reaction mixtures were separated by ultrahigh performance liquid-chromatography (1290 II Infinity UHPLC, Agilent Technologies), and the eluted compounds were analyzed by mass spectrometry using electrospray ionization in negative ion mode with a triple quadrupole linear ion trap mass spectrometer (QTRAP 5500, AB Sciex LLC).
To analyze the eluted compounds by mass spectrometry, a MRM method was applied. The specific parameters of this method are given in Table S2 (Supporting Information). After detection and selection of the precursor ions (1: m/z 832; 2: m/z 790), both analytes were fragmented, leading to three identical product ions [m/z (product 1) 385, collision energy = −60 V; m/z (product 2) 159, collision energy = −80 V; m/z (product 3) 79, collision energy = −140 V]. The mass transitions 832 → 79 (substrate 1) and 790 → 79 (product 2) were used as quantifiers; the other mass transitions were used as qualifiers. The ratio between substrate 1 and product 2 was quantified by comparing the peak areas of the quantifiers. The percentual inhibition caused by each inhibitor concentration was determined with respect to the amount of the product formed in the noninhibited reaction after 30 min.
Each assay was performed at least two times on separate days. […]

T1 sequence (P47205 whole entry): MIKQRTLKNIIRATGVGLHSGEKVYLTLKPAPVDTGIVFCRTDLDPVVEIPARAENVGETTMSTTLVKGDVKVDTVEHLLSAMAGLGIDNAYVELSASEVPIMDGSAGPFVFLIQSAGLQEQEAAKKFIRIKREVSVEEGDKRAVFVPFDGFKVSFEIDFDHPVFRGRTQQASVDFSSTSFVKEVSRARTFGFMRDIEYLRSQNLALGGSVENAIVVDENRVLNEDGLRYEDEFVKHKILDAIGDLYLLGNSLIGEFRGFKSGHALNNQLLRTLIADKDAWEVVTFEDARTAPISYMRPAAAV

Q: Which results are given for `Cc1noc(C)c1C(=O)NC[C@H](OCc1ccc(C#Cc2ccc(CN3CCOCC3)cc2)cc1)C(=O)NO` [(S)-13n]?
A: Inhibition zone E. coli ATCC 35218 (E. coli ATCC 35218): 20.0 ± 1.7 mm; Inhibition zone E. coli TOP 10 (E. coli TOP10): 24.0 ± 0 mm; Inhibition zone P. aeruginosa ATCC 27853 (P. aeruginosa ATCC 27853): <6 mm; MIC (E. coli BL21(DE3)): 16 µg/mL (≈ 30 µM); MIC (E. coli D22): 0.13 µg/mL (≈ 0.244 µM); Inhibition zone K. pneumoniae ATCC 700603 [1]: 7.0 ± 1.0 mm; Ki (P. aeruginosa LpxC): 80.4 ± 9.7 nM

Reference: article PMC11472313, “Development of Fragment-Based Inhibitors of the Bacterial Deacetylase LpxC with Low Nanomolar Activity” (Journal of Medicinal Chemistry, 2024)
